For assay [1], the system named is Human cervical cancer cells (HeLa S3). The assay is described as follows: Effect by combined use of drugs in cells (docetaxel), WST-8 method. It is filed as cell-based. To be noted: HeLa S3, three days; for inhibition at 0.3 µM / inhibition at 1 µM / inhibition at 0.1 µM: Homo sapiens, HeLa S3, 72 h, read-out: Cell growth inhibitory effect by sole administration of the compound of Example (%); for inhibition at 0.3 µM: compound 0.3 μM alone; for inhibition at 1 µM: compound 1.0 μM alone; for inhibition at 0.1 µM: compound 0.1 μM alone. The protocol: Fetal calf serum (FCS) was purchased from Moregate Biotech, DMEM medium from Invitrogen Corp., docetaxel (tradename: Taxere) from Sigma-Aldrich, Inc., and WST-8 from Kishida Chemical Co., Ltd.
(§1) Human cervical cancer cells (HeLa S3) were obtained from the American Type Culture Collection (ATCC).
Cells were suspended in a DMEM medium containing 10% FCS, and the cell suspension was dispensed to two 96-well plastic plates at a rate of 750 cells/100 microliters per well. The plates were incubated overnight in 5% CO2-95% air at 37° C. A drug was subjected to graded dilution in dimethylsulfoxide and further diluted with DMSO or with a DMEM medium containing 10% FCS and also containing 0.6 nM docetaxel. Then, the dilutions were each dispensed to one of the plates on which cells had been disseminated in advance, at a rate of 100 microliters per well. The final concentration of docetaxel at this stage was 0.3 nM. Also, the concentrations in the case of sole administration of the compound according to the invention were 0.003, 0.01, 0.03, 0.1, 0.3, 1, 3 and 10 μM. The plates were incubated for further three days in 5% CO2-95% air at 37° C. Cell growth after incubation was measured by the WST-8 method (H. Tominaga, et al., Anal. Commun., 36, 47-50 (1999)). Here, the WST-8 method refers to a method in which 20 microliters of a WST-8 reagent solution is added to each well, incubation is conducted at 37° C. for 60 minutes, the plate is stirred, and the amount of formazan produced is measured by a colorimetric method to determine the inhibitory rate of the drug. The growth inhibitory effects of docetaxel and of the compound according to the invention were determined, with the value obtained in sole treatment of DMSO being defined as 0%.
(Formazan colour is commonly taken as a measure of viable cells.)

For another assay, the target named is T1, human Aurora A (Homo sapiens, UniProt O14965).
T1 construct: His (N); made in house; host or cells: Escherichia coli BL21-CodonPlus(DE3)-RIL
T1 sequence (O14965 1-403): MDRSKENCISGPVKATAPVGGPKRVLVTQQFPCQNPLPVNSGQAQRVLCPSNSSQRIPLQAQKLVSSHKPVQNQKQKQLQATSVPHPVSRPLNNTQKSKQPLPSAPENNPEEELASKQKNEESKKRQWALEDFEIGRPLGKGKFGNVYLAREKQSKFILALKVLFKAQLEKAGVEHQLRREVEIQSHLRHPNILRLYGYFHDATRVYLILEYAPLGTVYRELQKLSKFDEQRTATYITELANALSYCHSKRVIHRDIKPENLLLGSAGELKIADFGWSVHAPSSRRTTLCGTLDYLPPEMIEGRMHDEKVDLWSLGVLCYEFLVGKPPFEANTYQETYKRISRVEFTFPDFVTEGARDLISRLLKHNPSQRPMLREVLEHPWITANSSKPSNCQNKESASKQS
Briefly: Aurora A inhibitory activity (IMAP fluorescence polarization phosphorylation assay). It is filed as biochemical. Conditions: 20 μM ATP, 30° C., 120 minutes. From the text: cDNA of N-terminal His-tagged human Aurora A was integrated into an expression vector, which was then highly expressed in Escherichia coli BL21-CodonPlus(DE3)-RIL cells. The Escherichia coli was harvested and lysed, and then the His-tagged human Aurora A protein was applied onto a nickel chelate column and eluted from the column with imidazole. The active fractions were desalted with a desalting column to give a purified enzyme.
For the phosphorylation reaction, the method by Upstate, Inc. [Kinase Profiler™ Assay Protocols] was referred to, and phosphorylation of the substrate was detected using IMAP® technology (Molecular Devices, Co. Ltd.) (Gaudet E W. et. al, J. Biomol. Screen, 8, 164-175 (2003)). Concretely, the phosphorylation reaction and the detection were carried out as follows:
The phosphorylation reaction was conducted using 384 well plate, and the reaction volume was 10 μl/well. The reaction buffer is comprised of 50 mM Tris-chloride buffer (pH 7.4), 15 mM magnesium acetate, and 0.2 mM ethylenediamine-N,N,N′,N′-tetraacetic acid (EDTA). Thereto, the purified Aurora A protein, 100 nM of the peptide substrate, and 20 μM of adenosine 5′-triphosphate (ATP) were added, and then the reaction was carried out at 30° C. for 120 minutes.
Thereafter, in order to terminate and detect the reaction, 30 μl of the IMAP (registered trademark) binding reagent (IMAP Progressive Binding Reagent, R7284) that had been diluted (1:400) in the 1×IMAP binding buffer A (IMAP Progressive Binding Buffer A, 5× stock, R7282) was added to each well. The solution stood still for 60 minutes in the dark, and then fluorescence polarization was measured using a high-end microplate reader (excitation wavelength: 485 nm; emission wavelength: 520 nm).
The compound to be tested was added to the reaction system such that a dilution series of the compound in dimethylsulfoxide (DMSO) was prepared, and then 0.5 μL of this solution was added for the testing to each well. Each control well was provided by adding 0.5 μL of DMSO to the well in place of the DMSO solution containing the compound to be tested.
In general terms: Fluorescence polarisation rises when a labelled molecule tumbles more slowly, as on binding a larger partner.

Assay [2] has as its system Human cervical cancer cells (HeLa S3). The assay is described as follows: Cell growth inhibitory effect, WST-8 method. Conditions: Homo sapiens, 72 h; HeLa S3, three days incubation; read-out: Cell growth inhibitory effect (HeLaS3) (IC50). The format is cell-based. The method, then:
Fetal calf serum (FCS) was purchased from Moregate Biotech, and DMEM medium was purchased from Invitrogen Corp. WST-8 was purchased from Kishida Chemical Co., Ltd.
as §1
Cells were suspended in a DMEM medium containing 10% FCS, and the cell suspension was dispensed to a 96-well plastic plate at a rate of 750 cells/100 microliters per well. The plate was incubated overnight in 5% CO2-95% air at 37° C. A drug was subjected to graded dilution in dimethylsulfoxide and further diluted with a DMEM medium containing 10% FCS. Then, the dilution was dispensed to the plate on which cells had been disseminated in advance, at a rate of 100 microliters per well. The plate was incubated for further three days in 5% CO2-95% air at 37° C. Cell growth after incubation was measured by the WST-8 method (H. Tominaga, et al., Anal. Commun., 36, 47-50 (1999)). Here, the WST-8 method refers to a method in which 20 microliters of a WST-8 reagent solution is added to each well, incubation is conducted at 37° C. for 60 minutes, the plate is stirred, and the amount of formazan produced is measured by a […] method to determine the inhibitory rate of the drug.

Assay [3] has as its target T2, GST-tagged human Aurora B(AurB)/His-tagged human INCENP complex proteins (Homo sapiens, UniProt Q96GD4).
T2 construct: GST; purchased Carna Biosciences, Inc
The assay is described as follows: Aurora B inhibitory activity (Method A, IMAP assay kit). It is filed as biochemical. To be noted: 40 μM ATP, 25° C., 45 minutes. The method, then:
An assay development kit for IMAP (registered trademark) (Aurora B), purchased from Carna Biosciences, Inc., was used for phosphorylation reaction, and the phosphorylation of a substrate was detected using the IMAP technology. […] Using the same, the phosphorylation reaction was conducted in accordance with a partially revised protocol attached to the kit, and then the phosphorylation of the substrate was detected using the IMAP technology.
For the phosphorylation reaction, 384 well plate was used, and the reaction volume was 10 μl/well. The composition of the reaction buffer (assay buffer) is comprised of 20 mM of HEPES buffer (pH 7.4), 0.01% Tween-20, and 2 mM of dithiothreitol (DTT). Thereto, AurB/INCENP complex protein, 100 nM of the substrate, and 40 μM of ATP, and 1 mM of magnesium salt were added, and then the reaction was conducted at 25° C. for 45 minutes. Thereafter, in order to terminate and detect the reaction, 30 μl of the IMAP (registered trademark) binding reagent (IMAP Progressive Binding Reagent, R7284) that had been diluted (1:400) in the 1× IMAP binding buffer A (IMAP Progressive Binding Buffer A, 5× stock, R7282) was added to each well.
The compound to be tested was added to the reaction system such that a dilution series of the compound in DMSO was prepared, and then 0.5 μL of this solution was added for the testing to each well. Each control well was provided by adding 0.5 μL of DMSO to the well in place of the DMSO solution containing the compound to be tested.

[4] abbreviates: compound 0.3 μM + docetaxel 0.3 nM.
[5] abbreviates: compound 1.0 μM + docetaxel 0.3 nM.
The mark [6] stands for this setting: compound 0.1 μM + docetaxel 0.3 nM.

SMILES strings stand for the structures. Where a name gives a salt, the structure may show the parent alone.

T2 sequence (Q96GD4 whole entry): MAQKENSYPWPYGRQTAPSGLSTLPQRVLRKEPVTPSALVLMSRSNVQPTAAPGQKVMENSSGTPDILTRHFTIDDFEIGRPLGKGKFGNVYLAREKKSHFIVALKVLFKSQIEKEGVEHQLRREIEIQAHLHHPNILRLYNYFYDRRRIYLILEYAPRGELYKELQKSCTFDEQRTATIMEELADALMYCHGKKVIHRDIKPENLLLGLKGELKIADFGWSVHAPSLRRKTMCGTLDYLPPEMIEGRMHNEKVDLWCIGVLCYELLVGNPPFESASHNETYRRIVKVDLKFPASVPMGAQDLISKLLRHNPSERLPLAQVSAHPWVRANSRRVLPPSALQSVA
T2 sequence (Q9NQS7 803-916 partner limits assumed): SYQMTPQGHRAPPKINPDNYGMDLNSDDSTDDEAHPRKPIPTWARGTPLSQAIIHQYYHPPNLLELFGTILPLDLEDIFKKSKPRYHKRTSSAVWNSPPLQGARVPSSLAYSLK

For orientation: IC50 means the point on the concentration scale where inhibition reaches its midpoint. Consider `Cl.O=C(O)[C@]1(Cc2cccc(Nc3nccs3)n2)CC[C@@H](Oc2cccc(Cl)c2Cl)CC1` [Example 6, trans-4-(2,3-dichlorophenoxy)-1-((6-(1,3-thiazol-2-ylamino)pyridin-2-yl)methyl)cyclohexanecarboxylic acid hydrochloride], for which the inhibition at 0.3 µM in assay [1] came to 7.2%. Further, the inhibition at 1 µM in assay [1] amounted to 25.6%. The results for the “Cell growth inhibitory effect by combined administration of docetaxel and the compound of Example (%)” value (“Cell growth inhibitory effect … (%)” below) in assay [1] (setting [4]) and in assay [1] (setting [5]) were 70.0% and 87.0%, respectively. The values for the IC50 (against human Aurora A; in assay [2]; in assay [3]) were 0.07 nM, 1930 nM and 37 nM, respectively.

For `O=c1[nH]nc([C@]2(Cc3cccc(Nc4cc[nH]n4)n3)CC[C@@H](Sc3cccc(Cl)c3Cl)CC2)o1` [Example 34, 5-(trans-4-((2,3-dichlorophenyl)thio)-1-((6-(1H-pyrazol-3-ylamino)pyridin-2-yl)methyl)cyclohexyl)-1,3,4-oxadiazol-2(3H)-one trifluoroacetate], in assay [1], the inhibition at 0.1 µM is 3.9%. In addition, the inhibition at 0.3 µM in assay [1] came out at 40.8%. The “Cell growth inhibitory effect … (%)” value in assay [1] (setting [6]) turned out to be 83.8%; in assay [1] (setting [4]) it was 93.9%. Moreover, the IC50 against human Aurora A came to 0.47 nM; in assay [2], 870 nM; in assay [3], 690 nM.

As to `O=c1[nH]nc([C@]2(Cc3cccc(Nc4cc[nH]n4)n3)CC[C@@H](S(=O)(=O)c3cccc(Cl)c3Cl)CC2)o1` [Example 36, 5-(trans-4-((2,3-dichlorophenyl)sulfonyl)-1-((6-(1H-pyrazol-3-ylamino)pyridin-2-yl)methyl)cyclohexyl)-1,3,4-oxadiazol-2(3H)-one trifluoroacetate], the inhibition at 0.1 µM in assay [1] turned out to be 2.6%. Further, the inhibition at 0.3 µM in assay [1] turned out to be 32%. The results for the “Cell growth inhibitory effect … (%)” value in assay [1] (setting [6]) and in assay [1] (setting [4]) were 76.8% and 88.9%, respectively. Also, the results for the IC50 (against human Aurora A; in assay [2]; in assay [3]) were 0.43 nM, 1130 nM and 370 nM, respectively.

For `Cl.O=C(O)[C@]1(Cc2cccc(Nc3nccs3)n2)CC[C@@H](Oc2cccc(F)c2F)CC1` [Example 3, trans-4-(2,3-difluorophenoxy)-1-((6-(1,3-thiazol-2-ylamino)pyridin-2-yl)methyl)cyclohexanecarboxylic acid hydrochloride], the inhibition at 0.3 µM in assay [1] was 5.4%. The inhibition at 1 µM in assay [1] turned out to be 26.9%. Further, the “Cell growth inhibitory effect … (%)” value came out at 74.1% in assay [1] (setting [4]) and 90.4% in assay [1] (setting [5]). In addition, the IC50 on human Aurora A came out at 0.12 nM; in assay [2], 3950 nM; in assay [3], 59 nM.

`O=C(O)[C@]1(Cc2cccc(Nc3nccs3)n2)CC[C@@H](Sc2cccc(Cl)c2Cl)CC1` [Example 30, trans-4-((2,3-dichlorophenyl)thio)-1-((6-(1,3-thiazol-2-ylamino)pyridin-2-yl)methyl)cyclohexanecarboxylic acid trifluoroacetate]: in assay [1], the inhibition at 0.1 µM was found to be 28.3%. Also, the inhibition at 0.3 µM in assay [1] was found to be 53.4%. In addition, the “Cell growth inhibitory effect … (%)” value is given as 81.2% in assay [1] (setting [6]) and 92.0% in assay [1] (setting [4]). Further, the IC50 on human Aurora A came out at 0.08 nM; in assay [2], 340 nM; in assay [3] it was 39 nM.

Turning to `Fc1c(Cl)cccc1O[C@H]1CC[C@](Cc2cccc(Nc3cc[nH]n3)n2)(c2n[nH]c(=S)o2)CC1` [Example 24, 5-(trans-4-(3-chloro-2-fluorophenoxy)-1-((6-(1H-pyrazol-3-ylamino)pyridin-2-yl)methyl)cyclohexyl)-1,3,4-oxadiazole-2(3H)-thione], the inhibition at 0.1 µM in assay [1] was 0.5%. Moreover, the inhibition at 0.3 µM in assay [1] was 25.4%. Moreover, the “Cell growth inhibitory effect … (%)” value in assay [1] (setting [6]) worked out at 72.8%; in assay [1] (setting [4]), 87.8%. The IC50 on human Aurora A turned out to be 0.12 nM; in assay [2], 1150 nM; in assay [3], 130 nM.

The values are drawn from patent US20100016335A1, “NOVEL AMINOPYRIDINE DERIVATIVES HAVING AURORA A SELECTIVE INHIBITORY ACTION” (priority 2006, published 2010).
